# Measurements: patent US20120316169A1, “2-ARYL-PROPIONAMIDE DERIVATIVES USEFUL AS BRADYKININ RECEPTOR ANTAGONISTS AND PHARMACEUTICAL COMPOSITIONS CONTAINING THEM” (DOMPÉ S.P.A., priority 2009, published 2012)
# Molecular target: T1, BKB1 receptors (Homo sapiens, UniProt P46663)
# T1 construct: Human (IMR-90) lung fibroblast cells expressing native B1 receptors; endogenous in cells; host or cells: IMR-90 human lung fibroblasts, interleukin-treated to up-regulate BKB1 receptors
# T1 sequence (P46663 1-353): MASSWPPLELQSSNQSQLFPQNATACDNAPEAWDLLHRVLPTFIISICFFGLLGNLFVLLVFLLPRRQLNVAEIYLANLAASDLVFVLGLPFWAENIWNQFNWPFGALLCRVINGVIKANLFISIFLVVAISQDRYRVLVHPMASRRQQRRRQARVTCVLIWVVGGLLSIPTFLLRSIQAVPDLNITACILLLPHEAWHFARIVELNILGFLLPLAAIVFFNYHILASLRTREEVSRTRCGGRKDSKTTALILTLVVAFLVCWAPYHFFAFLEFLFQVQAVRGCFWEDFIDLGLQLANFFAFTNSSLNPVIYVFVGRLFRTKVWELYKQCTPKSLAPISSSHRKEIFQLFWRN
# Experiment: Calcium mobilization assay (FLIPR), B1 receptors in IMR-90 cells
# Assay type: cell-based
# Conditions: Human IMR-90 lung fibroblast cells, up-regulated BKB1 receptors, agonist desArg10-kallidin (DAKD) 2 to 8 nM, calcium-dependent fluorescence
# Method: Calcium mobilization assay (FLIPR)—Human (IMR-90) lung fibroblast cells expressing native B1 receptors were harvested by trypsinization and seeded into black wall/clear bottom 96-well plates (Costar 3904; Corning Life Sciences, Acton, Mass.) at approximately 13,000 cells/well. After 1 day incubation, cells were treated with […] (0.35 ng/ml) in 10% FBS/MEM for 2 h to up-regulate BKB1 receptors. Induced cells were loaded with fluorescent calcium indicator by incubation with 2.3 μM Fluo-4/acetoxymethyl ester (Invitrogen) at 37° C. for 1.5 h in the presence of an anion transport inhibitor (2.5 mM probenecid in 1% FBS/MEM). Extracellular dye was removed by washing with assay buffer (2.5 mM probenecid, 0.1% BSA in 20 mM HEPES/HBSS without bicarbonate or phenol red, pH 7.5) and cell plates were kept in the dark until used. Test compounds were assayed at eight concentrations in triplicate. Addition of test compounds to the cell plate and incubation for 5 min at 35° C., followed by the addition of 2 to 8 nM final BK1 agonist desArg^10-kallidin (DAKD, 3×EC50) was carried out in the fluorimetric imaging plate reader (FLIPR; Molecular Devices) while continuously monitoring calcium-dependent fluorescence.
row,IC50 [µM],SMILES
1,11.5,"CC(C(=O)Nc1ccc(Cc2ccncc2)cc1)c1ccc(Nc2nc(C(F)(F)F)cs2)cc1 (stereo not drawn) [Compound 44, N-[4-(pyridin-4-ylmethyl)phenyl]-2-(4-{[4-(trifluoromethyl)-1,3-thiazol-2-yl]amino}phenyl)propanamide]"
2,7.24,"CC(C(=O)NCCNc1ccccc1)c1cccc(Oc2cccc(F)c2)c1 (stereo not drawn) [Compound 12, 2-[3-(3-fluorophenoxy)phenyl]-N-[2-(phenylamino)ethyl]propanamide]"
3,5.75,CC(C(=O)Nc1ccncc1)c1ccc(Nc2ccccc2-n2cccc2)cc1 (stereo not drawn) [Compound 82]
